According to ChEMBL document CHEMBL3352542, “Synthesis, biological evaluation and molecular modeling study of 2-(1,3,4-thiadiazolyl-thio and 4-methyl-thiazolyl-thio)-quinazolin-4-ones as a new class of DHFR inhibitors” (Bioorg Med Chem Lett, 2014):
Activity calls are given as the source filed them. The rule behind the calls is not given here.

Key:
Dihydrofolate reductase = target: T1, Dihydrofolate reductase (Bos taurus, UniProt P00376); test: Inhibition of bovine liver DHFR
T1 sequence (P00376 whole entry): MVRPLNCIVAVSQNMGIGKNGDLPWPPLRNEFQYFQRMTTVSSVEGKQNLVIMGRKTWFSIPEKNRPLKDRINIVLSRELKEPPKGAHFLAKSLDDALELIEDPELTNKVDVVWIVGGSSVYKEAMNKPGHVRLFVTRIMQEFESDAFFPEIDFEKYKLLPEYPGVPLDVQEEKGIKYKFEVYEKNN

Staphylococcus aureus = test: Antimicrobial activity against Staphylococcus aureus assessed as inhibition zone at 200 ug/disk after 24 hrs by disc-diffusion method; format: functional; settings: read-out: IZ
Bacillus subtilis = test: Antimicrobial activity against Bacillus subtilis assessed as inhibition zone at 200 ug/disk after 24 hrs by disc-diffusion method; format: functional; settings: read-out: IZ
Escherichia coli = test: Antimicrobial activity against Escherichia coli assessed as inhibition zone at 200 ug/disk after 24 hrs by disc-diffusion method; format: functional; settings: read-out: IZ
Pseudomonas aeruginosa = test: Antimicrobial activity against Pseudomonas aeruginosa assessed as inhibition zone at 200 ug/disk after 24 hrs by disc-diffusion method; format: functional; settings: read-out: IZ
Candida albicans = test: Antimicrobial activity against Candida albicans assessed as inhibition zone at 200 ug/disk after 24 hrs by disc-diffusion method; format: functional; settings: read-out: IZ
CCRF-CEM = test: Growth inhibition of human CCRF-CEM cells at 10 uM after 48 hrs; format: functional
HL-60(TB) = test: Growth inhibition of human HL-60(TB) cells at 10 uM after 48 hrs; format: functional
K562 = test: Growth inhibition of human K562 cells at 10 uM after 48 hrs; format: functional
MOLT-4 = test: Growth inhibition of human MOLT4 cells at 10 uM after 48 hrs; format: functional
RPMI-8226 = test: Growth inhibition of human RPMI8226 cells at 10 uM after 48 hrs; format: functional
SR = test: Growth inhibition of human SR cells at 10 uM after 48 hrs; format: functional
A549 = test: Growth inhibition of human A549 cells at 10 uM after 48 hrs; format: functional
HOP-92 = test: Growth inhibition of human HOP92 cells at 10 uM after 48 hrs; format: functional
NCI-H226 = test: Growth inhibition of human NCI-H226 cells at 10 uM after 48 hrs; format: functional
NCI-H23 = test: Growth inhibition of human NCI-H23 cells at 10 uM after 48 hrs; format: functional
NCI-H460 = test: Growth inhibition of human NCI-H460 cells at 10 uM after 48 hrs; format: functional
NCI-H522 = test: Growth inhibition of human NCI-H522 cells at 10 uM after 48 hrs; format: functional
COLO 205 = test: Growth inhibition of human COLO205 cells at 10 uM after 48 hrs; format: functional
HCC 2998 = test: Growth inhibition of human HCC2998 cells at 10 uM after 48 hrs; format: functional
HCT-116 = test: Growth inhibition of human HCT116 cells at 10 uM after 48 hrs; format: functional
HCT-15 = test: Growth inhibition of human HCT15 cells at 10 uM after 48 hrs; format: functional
HT-29 = test: Growth inhibition of human HT-29 cells at 10 uM after 48 hrs; format: functional
KM12 = test: Growth inhibition of human KM12 cells at 10 uM after 48 hrs; format: functional
SW-620 = test: Growth inhibition of human SW620 cells at 10 uM after 48 hrs; format: functional
SF-268 = test: Growth inhibition of human SF268 cells at 10 uM after 48 hrs; format: functional
SF-295 = test: Growth inhibition of human SF295 cells at 10 uM after 48 hrs; format: functional
SF-539 = test: Growth inhibition of human SF539 cells at 10 uM after 48 hrs; format: functional
SNB-19 = test: Growth inhibition of human SNB19 cells at 10 uM after 48 hrs; format: functional
SNB-75 = test: Growth inhibition of human SNB75 cells at 10 uM after 48 hrs; format: functional
U-251 = test: Growth inhibition of human U251 cells at 10 uM after 48 hrs; format: functional
LOX IMVI = test: Growth inhibition of human LOXIMVI cells at 10 uM after 48 hrs; format: functional
Malme-3M = test: Growth inhibition of human MALME-3M cells at 10 uM after 48 hrs; format: functional
M14 = test: Growth inhibition of human M14 cells at 10 uM after 48 hrs; format: functional
MDA-MB-435 = test: Growth inhibition of human MDA-MB-435 cells at 10 uM after 48 hrs; format: functional
SK-MEL-5 = test: Growth inhibition of human SK-MEL-5 cells at 10 uM after 48 hrs; format: functional
UACC-257 = test: Growth inhibition of human UACC257 cells at 10 uM after 48 hrs; format: functional
UACC-62 = test: Growth inhibition of human UACC62 cells at 10 uM after 48 hrs; format: functional
OVCAR-3 = test: Growth inhibition of human OVCAR3 cells at 10 uM after 48 hrs; format: functional
OVCAR-4 = test: Growth inhibition of human OVCAR4 cells at 10 uM after 48 hrs; format: functional
OVCAR-5 = test: Growth inhibition of human OVCAR5 cells at 10 uM after 48 hrs; format: functional
OVCAR-8 = test: Growth inhibition of human OVCAR8 cells at 10 uM after 48 hrs; format: functional
NCI/ADR-RES = test: Growth inhibition of human NCI-ADR-RES cells at 10 uM after 48 hrs; format: functional
786-0 = test: Growth inhibition of human 786-0 cells at 10 uM after 48 hrs; format: functional
A498 = test: Growth inhibition of human A498 cells at 10 uM after 48 hrs; format: functional
ACHN = test: Growth inhibition of human ACHN cells at 10 uM after 48 hrs; format: functional
CAKI-1 = test: Growth inhibition of human CAKI-1 cells at 10 uM after 48 hrs; format: functional
RXF 393 = test: Growth inhibition of human RXF393 cells at 10 uM after 48 hrs; format: functional
SN12C = test: Growth inhibition of human SN12C cells at 10 uM after 48 hrs; format: functional
TK-10 = test: Growth inhibition of human TK10 cells at 10 uM after 48 hrs; format: functional
UO-31 = test: Growth inhibition of human UO31 cells at 10 uM after 48 hrs; format: functional
PC-3 = test: Growth inhibition of human PC3 cells at 10 uM after 48 hrs; format: functional
MCF7 = test: Growth inhibition of human MCF7 cells at 10 uM after 48 hrs; format: functional
MDA-MB-231 = test: Growth inhibition of human MDA-MB-231 cells at 10 uM after 48 hrs; format: functional
Hs-578T = test: Growth inhibition of human Hs 578T cells at 10 uM after 48 hrs; format: functional
BT-549 = test: Growth inhibition of human BT549 cells at 10 uM after 48 hrs; format: functional
T47D = test: Growth inhibition of human T47D cells at 10 uM after 48 hrs; format: functional
MDA-MB-468 = test: Growth inhibition of human MDA-MB-468 cells at 10 uM after 48 hrs; format: functional

Cc1ccc2nc(Sc3nnc(N)s3)n(Cc3ccccc3)c(=O)c2c1
IC50 (Dihydrofolate reductase): 2 µM
zone of inhibition at 200 µg/disc (Staphylococcus aureus): 8 mm
zone of inhibition at 200 µg/disc (Bacillus subtilis): 8 mm
zone of inhibition at 200 µg/disc (Escherichia coli): 8 mm
zone of inhibition at 200 µg/disc (Pseudomonas aeruginosa): 8 mm
zone of inhibition at 200 µg/disc (Candida albicans): 8 mm
growth inhibition (GI) (CCRF-CEM): inactive
growth inhibition (GI) (HL-60(TB)): inactive
growth inhibition (GI) (K562): inactive
growth inhibition (GI) (MOLT-4): inactive
growth inhibition (GI) (RPMI-8226): inactive
growth inhibition (GI) (SR): inactive
growth inhibition (GI) (A549): inactive
growth inhibition (GI) (HOP-92): inactive
growth inhibition (GI) (NCI-H226): inactive
growth inhibition (GI) (NCI-H23): inactive
growth inhibition (GI) (NCI-H460): inactive
growth inhibition (GI) (NCI-H522): inactive
growth inhibition (GI) (COLO 205): inactive
growth inhibition (GI) (HCC 2998): inactive
growth inhibition (GI) (HCT-116): inactive
growth inhibition (GI) (HCT-15): inactive
growth inhibition (GI) (HT-29): inactive
growth inhibition (GI) (KM12): inactive
growth inhibition (GI) (SW-620): inactive
growth inhibition (GI) (SF-268): inactive
growth inhibition (GI) (SF-295): inactive
growth inhibition (GI) (SF-539): inactive
growth inhibition (GI) (SNB-19): inactive
growth inhibition (GI) (SNB-75): inactive
growth inhibition (GI) (U-251): inactive
growth inhibition (GI) (LOX IMVI): inactive
growth inhibition (GI) (Malme-3M): inactive
growth inhibition (GI) (M14): inactive
growth inhibition (GI) (MDA-MB-435): inactive
growth inhibition (GI) (SK-MEL-5): inactive
growth inhibition (GI) (UACC-257): inactive
growth inhibition (GI) (UACC-62): inactive
growth inhibition (GI) (OVCAR-3): inactive
growth inhibition (GI) (OVCAR-4): inactive
growth inhibition (GI) (OVCAR-5): inactive
growth inhibition (GI) (OVCAR-8): inactive
growth inhibition (GI) (NCI/ADR-RES): inactive
growth inhibition (GI) (786-0): inactive
growth inhibition (GI) (A498): inactive
growth inhibition (GI) (ACHN): inactive
growth inhibition (GI) (CAKI-1): inactive
growth inhibition (GI) (RXF 393): inactive
growth inhibition (GI) (SN12C): inactive
growth inhibition (GI) (TK-10): inactive
growth inhibition (GI) (UO-31): inactive
growth inhibition (GI) (PC-3): inactive
growth inhibition (GI) (MCF7): inactive
growth inhibition (GI) (MDA-MB-231): inactive
growth inhibition (GI) (Hs-578T): inactive
growth inhibition (GI) (BT-549): inactive
growth inhibition (GI) (T47D): inactive
growth inhibition (GI) (MDA-MB-468): inactive

Cc1ccc(-n2c(Sc3sc(N)nc3C)nc3ccc(C)cc3c2=O)cc1
IC50 (Dihydrofolate reductase): 7 µM
zone of inhibition at 200 µg/disc (Staphylococcus aureus): 8 mm
zone of inhibition at 200 µg/disc (Bacillus subtilis): 8 mm
zone of inhibition at 200 µg/disc (Escherichia coli): 8 mm
zone of inhibition at 200 µg/disc (Pseudomonas aeruginosa): 8 mm
zone of inhibition at 200 µg/disc (Candida albicans): 8 mm
growth inhibition (GI) (CCRF-CEM): inactive
growth inhibition (GI) (HL-60(TB)): inactive
growth inhibition (GI) (K562): inactive
growth inhibition (GI) (MOLT-4): inactive
growth inhibition (GI) (RPMI-8226): inactive
growth inhibition (GI) (SR): inactive
growth inhibition (GI) (A549): inactive
growth inhibition (GI) (HOP-92): inactive
growth inhibition (GI) (NCI-H226): inactive
growth inhibition (GI) (NCI-H23): inactive
growth inhibition (GI) (NCI-H460): inactive
growth inhibition (GI) (NCI-H522): inactive
growth inhibition (GI) (COLO 205): inactive
growth inhibition (GI) (HCC 2998): inactive
growth inhibition (GI) (HCT-116): inactive
growth inhibition (GI) (HCT-15): inactive
growth inhibition (GI) (HT-29): inactive
growth inhibition (GI) (KM12): inactive
growth inhibition (GI) (SW-620): inactive
growth inhibition (GI) (SF-268): inactive
growth inhibition (GI) (SF-295): inactive
growth inhibition (GI) (SF-539): inactive
growth inhibition (GI) (SNB-19): inactive
growth inhibition (GI) (SNB-75): inactive
growth inhibition (GI) (U-251): inactive
growth inhibition (GI) (LOX IMVI): inactive
growth inhibition (GI) (Malme-3M): inactive
growth inhibition (GI) (M14): inactive
growth inhibition (GI) (MDA-MB-435): inactive
growth inhibition (GI) (SK-MEL-5): inactive
growth inhibition (GI) (UACC-257): inactive
growth inhibition (GI) (UACC-62): inactive
growth inhibition (GI) (OVCAR-3): inactive
growth inhibition (GI) (OVCAR-4): inactive
growth inhibition (GI) (OVCAR-5): inactive
growth inhibition (GI) (OVCAR-8): inactive
growth inhibition (GI) (NCI/ADR-RES): inactive
growth inhibition (GI) (786-0): inactive
growth inhibition (GI) (A498): inactive
growth inhibition (GI) (ACHN): inactive
growth inhibition (GI) (CAKI-1): inactive
growth inhibition (GI) (RXF 393): inactive
growth inhibition (GI) (SN12C): inactive
growth inhibition (GI) (TK-10): inactive
growth inhibition (GI) (UO-31): inactive
growth inhibition (GI) (PC-3): inactive
growth inhibition (GI) (MCF7): inactive
growth inhibition (GI) (MDA-MB-231): inactive
growth inhibition (GI) (Hs-578T): inactive
growth inhibition (GI) (BT-549): inactive
growth inhibition (GI) (T47D): inactive
growth inhibition (GI) (MDA-MB-468): inactive
